By IC50 is commonly meant the concentration that gives 50% inhibition.

For 32 compounds, IC50 results are on record in US20090270450A1, “CHEMICAL COMPOUNDS” (ASTRAZENECA AB, priority 2006, published 2009).

The target in this test is T1, His-tagged kinase domain of CSF-1R (amino acids 568-912) (Homo sapiens, UniProt P07333).
T1 construct: The His-tagged kinase domain of CSF-1R (i.e., amino acids 568-912, GeneBank ID NM_005211); His; made in house; host or cells: baculovirus infected SF+Express insect cells
T1 sequence (P07333 568-912): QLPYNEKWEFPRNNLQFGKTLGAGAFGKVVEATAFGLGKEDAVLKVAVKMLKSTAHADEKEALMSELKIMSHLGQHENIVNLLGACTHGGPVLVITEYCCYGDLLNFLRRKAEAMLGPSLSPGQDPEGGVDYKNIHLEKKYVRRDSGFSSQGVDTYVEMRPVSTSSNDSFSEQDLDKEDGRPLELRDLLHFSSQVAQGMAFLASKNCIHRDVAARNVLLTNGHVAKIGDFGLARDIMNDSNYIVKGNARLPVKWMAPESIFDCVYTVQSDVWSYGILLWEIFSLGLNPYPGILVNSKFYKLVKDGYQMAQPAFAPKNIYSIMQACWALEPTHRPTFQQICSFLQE
The experiment in a line: Assay 1: CSF-1R in vitro AlphaScreen assay. In kind it is biochemical. To be noted: phosphorylation of biotinylated pEY substrate; 0.57 nM CSF-1R, 90 μM ATP. Here is the method:
Assay 1: CSF-1R in Vitro AlphaScreen Assay
Activity of purified CSF-1R was determined in vitro using an Amplified Luminescent Proximity Homogeneous Assay (ALPHA)(Perkin Elmer), which measures phosphorylation of the CSF-1R substrate, biotinylated poly-glutamine-tyrosine peptide (PEY-HTRF CisBio 61GT0BLD), as described below. The His-tagged kinase domain of CSF-1R (i.e., amino acids 568-912, GeneBank ID NM_005211; (see page 25 lines 13-19 of WO 2006/067445 for the sequence listing)) was purified from baculovirus infected SF+Express insect cells (1.4×10^6 cells/ml), French pressed and chromatographed through subsequent Qiagen Ni-NTA, Superflow Mono Q HR 10/10, and Superdex 200 SEC columns. Typical yield was 245 μg/l of cell pellet at >95% purity.
The phosphorylation of the CSF-1R substrate in the presence and absence of the compound of interest was determined. Briefly, 0.57 nM of purified CSF-1R, 5 nM pEY substrate, and compound were preincubated in 1× buffer for 30 minutes at 25° C. Reactions were initiated with addition of 90 μM adenosine triphosphate (ATP) in 1× buffer and incubated at 25° C. for 60 minutes and reactions stopped by addition of 5 μl of detection mix consisting of 136 mM NaCl, 102 mM ethylenediamine tetraacetic acid, 1.65 mg/ml BSA, 40 ug/ml Streptavidin donor beads (Perkin Elmer 6760002), 40 ug/ml pTyr100 acceptor beads (Perkin Elmer 6760620). Plates were incubated at 25° C. for 18 hours in the dark. Phosphorylated substrate was detected by an EnVision plate reader (Perkin Elmer) 680 nm excitation, 520-620 nm emission. Data was graphed and IC50s calculated using Excel Fit (Microsoft).
Background: In Alpha technology, singlet oxygen from a donor bead excites a nearby acceptor bead.
In turn, `COc1cc2ncc(C(N)=O)c(Nc3ccc(Cl)c(Cl)c3)c2cc1CCCN` [Example 1, 6-(3-Aminopropyl)-4-[(3,4-dichlorophenyl)amino]-7-methoxyquinoline-3-carboxamide] came in with an IC50 of 2 nM. With `CCOc1cc2ncc(C(N)=O)c(Nc3cccc(Cl)c3F)c2cc1CCCO` [Example 3, 4-[(3-Chloro-2-fluorophenyl)amino]-7-ethoxy-6-(3-hydroxypropyl)quinoline-3-carboxamide] the figure was 5 nM; with `COc1cc2ncc(C(N)=O)c(Nc3ccc(F)cc3F)c2cc1CCCN1CCCCC1` [Example 8, 4-[(2,4-Difluorophenyl)amino]-7-methoxy-6-(3-piperidin-1-ylpropyl)quinoline-3-carboxamide], 20 nM; with `COc1cc2ncc(C(N)=O)c(Nc3ccc(F)cc3F)c2cc1CCCN(C)C` [Example 9, 4-[(2,4-Difluorophenyl)amino]-6-[3-(dimethylamino)propyl]-7-methoxyquinoline-3-carboxamide], 3 nM. With `COc1cc2ncc(C(N)=O)c(Nc3ccc(F)cc3F)c2cc1CCCNC1CC1` [Example 10, 6-[3-(Cyclopropylamino)propyl]-4-[(2,4-difluorophenyl)amino]-7-methoxyquinoline-3-carboxamide] the figure was 23 nM; with `COc1cc2ncc(C(N)=O)c(Nc3ccc(Cl)c(Cl)c3)c2cc1CCCNC1CC1` [Example 11, 6-[3-(Cyclopropylamino)propyl]-4-[(3,4-dichlorophenyl)amino]-7-methoxyquinoline-3-carboxamide], 4 nM; with `COc1cc2ncc(C(N)=O)c(Nc3ccc(Cl)c(Cl)c3)c2cc1CCCN1CCCCC1` [Example 12, 4-[(3,4-Dichlorophenyl)amino]-7-methoxy-6-(3-piperidin-1-ylpropyl)quinoline-3-carboxamide], 4 nM. With `COc1cc2ncc(C(N)=O)c(Nc3ccc(Cl)c(Cl)c3)c2cc1CCCN(C)C` [Example 13, 4-[(3,4-Dichlorophenyl)amino]-6-[3-(dimethylamino)propyl]-7-methoxyquinoline-3-carboxamide] the figure was 1 nM; with `COc1cc2ncc(C(N)=O)c(Nc3ccc(F)cc3F)c2cc1CCCO` [Example 14, 4-[(2,4-Difluorophenyl)amino]-6-(3-hydroxypropyl)-7-methoxyquinoline-3-carboxamide], 8 nM; with `COc1cc2ncc(C(N)=O)c(Nc3ccc(Cl)c(Cl)c3)c2cc1CCCO` [Example 15, 4-[(3,4-Dichlorophenyl)amino]-6-(3-hydroxypropyl)-7-methoxyquinoline-3-carboxamide], 2 nM. `CCOc1cc2ncc(C(N)=O)c(Nc3ccc(F)cc3F)c2cc1CCCO` [Example 16, 4-[(2,4-Difluorophenyl)amino]-7-ethoxy-6-(3-hydroxypropyl)quinoline-3-carboxamide] came in with an IC50 of 5 nM. In turn, `COc1cc2ncc(C(N)=O)c(Nc3ccc(F)c(Cl)c3)c2cc1CCCO` [Example 17, 4-[(3-Chloro-4-fluorophenyl)amino]-6-(3-hydroxypropyl)-7-methoxyquinoline-3-carboxamide] gave an IC50 of 9 nM. The same measure for `COc1cc2ncc(C(N)=O)c(Nc3cccc(Cl)c3F)c2cc1CCCO` [Example 18, 4-[(3-Chloro-2-fluorophenyl)amino]-6-(3-hydroxypropyl)-7-methoxyquinoline-3-carboxamide]: < 3 nM. With `COc1cc2ncc(C(N)=O)c(Nc3cccc(Cl)c3Cl)c2cc1CCCO` [Example 19, 4-[(2,3-Dichlorophenyl)amino]-6-(3-hydroxypropyl)-7-methoxyquinoline-3-carboxamide] the figure was 8 nM. The same measure for `CCc1ccc(Nc2c(C(N)=O)cnc3cc(OC)c(CCCO)cc23)cc1` [Example 20, 4-[(4-Ethylphenyl)amino]-6-(3-hydroxypropyl)-7-methoxyquinoline-3-carboxamide]: 38 nM; for `CCc1ccc(Nc2c(C(N)=O)cnc3cc(OC)c(C#CCO)cc23)cc1` [Example 21, 4-[(4-Ethylphenyl)amino]-6-(3-hydroxyprop-1-yn-1-yl)-7-methoxyquinoline-3-carboxamide]: 18 nM; for `CCOc1cc2ncc(C(N)=O)c(Nc3ccc(CC)cc3)c2cc1CCCO` [Example 22, 7-Ethoxy-4-[(4-ethylphenyl)amino]-6-(3-hydroxypropyl)quinoline-3-carboxamide]: 33 nM. `CCOc1cc2ncc(C(N)=O)c(Nc3ccc(Cl)c(Cl)c3)c2cc1CCCO` [Example 23, 4-[(3,4-Dichlorophenyl)amino]-7-ethoxy-6-(3-hydroxypropyl)quinoline-3-carboxamide] had an IC50 of 22 nM. With `CCOc1cc2ncc(C(N)=O)c(Nc3cccc(Cl)c3Cl)c2cc1CCCO` [Example 24, 4-[(2,3-Dichlorophenyl)amino]-7-ethoxy-6-(3-hydroxypropyl)quinoline-3-carboxamide] the figure was 26 nM; with `CCOc1cc2ncc(C(N)=O)c(Nc3ccc(F)c(Cl)c3)c2cc1CCCO` [Example 25, 4-[(3-Chloro-4-fluorophenyl)amino]-7-ethoxy-6-(3-hydroxypropyl)quinoline-3-carboxamide], 7 nM. Consider `COc1cc2ncc(C(N)=O)c(Nc3ccc(Cl)c(Cl)c3)c2cc1C1CC1` [Example 26, 6-Cyclopropyl-4-[(3,4-dichlorophenyl)amino]-7-methoxyquinoline-3-carboxamide], for which the IC50 is 140 nM. With `COc1cc2ncc(C(N)=O)c(Nc3ccc(F)cc3F)c2cc1C1CC1` [Example 27, 6-Cyclopropyl-4-[(2,4-difluorophenyl)amino]-7-methoxyquinoline-3-carboxamide] the figure was 65 nM; with `COc1cc2c(Nc3ccc(F)cc3F)c(C(N)=O)cnc2cc1C1CC1` [Example 28, 7-Cyclopropyl-4-[(2,4-difluorophenyl)amino]-6-methoxyquinoline-3-carboxamide], 14 nM; with `COc1cc2c(Nc3ccc(Cl)c(Cl)c3)c(C(N)=O)cnc2cc1C1CC1` [Example 29, 7-Cyclopropyl-4-[(3,4-dichlorophenyl)amino]-6-methoxyquinoline-3-carboxamide], 57 nM. With `CCOc1cc2ncc(C(N)=O)c(Nc3ccc(F)cc3F)c2cc1-c1ccc(OC)nc1` [Example 30, 4-[(2,4-Difluorophenyl)amino]-7-ethoxy-6-(6-methoxypyridin-3-yl)quinoline-3-carboxamide] the figure was 76 nM; with `CCOc1cc2ncc(C(N)=O)c(Nc3ccc(F)cc3F)c2cc1-c1cccnc1` [Example 31, 4-[(2,4-Difluorophenyl)amino]-7-ethoxy-6-pyridin-3-ylquinoline-3-carboxamide], 43 nM; with `CCOc1cc2ncc(C(N)=O)c(Nc3ccc(F)cc3F)c2cc1-c1c(C)noc1C` [Example 32, 4-[(2,4-Difluorophenyl)amino]-6-(3,5-dimethylisoxazol-4-yl)-7-ethoxyquinoline-3-carboxamide], 35 nM. With `CCOc1cc2ncc(C(N)=O)c(Nc3ccc(F)cc3F)c2cc1-c1ccc[nH]1` [Example 33, 4-[(2,4-Difluorophenyl)amino]-7-ethoxy-6-(1H-pyrrol-2-yl)quinoline-3-carboxamide] the figure was 96 nM; with `CCOc1cc2ncc(C(N)=O)c(Nc3ccc(F)cc3F)c2cc1-c1cncnc1` [Example 34, 4-[(2,4-Difluorophenyl)amino]-7-ethoxy-6-pyrimidin-5-ylquinoline-3-carboxamide], 25 nM. Compound `CCOc1cc2ncc(C(N)=O)c(Nc3ccc(F)cc3F)c2cc1-c1ccncc1` [Example 35, 4-[(2,4-Difluorophenyl)amino]-7-ethoxy-6-pyridin-4-ylquinoline-3-carboxamide] came in with an IC50 of 61 nM. In turn, `CCOc1cc2ncc(C(N)=O)c(Nc3ccc(F)cc3F)c2cc1-c1cn[nH]c1` [Example 36, 4-[(2,4-Difluorophenyl)amino]-7-ethoxy-6-(1H-pyrazol-4-yl)quinoline-3-carboxamide] showed a concentration for half-maximal inhibition (IC50) of 28 nM. With `CCOc1cc2ncc(C(N)=O)c(Nc3ccc(F)cc3F)c2cc1-c1cnn(CC(C)C)c1` [Example 37, 4-[(2,4-Difluorophenyl)amino]-7-ethoxy-6-(1-isobutyl-1H-pyrazol-4-yl)quinoline-3-carboxamide] the figure was 440 nM.
